The source of these data is patent US6803046B2, “Sincalide formulations” (Bracco International B.V., priority 2002, dated 2004).

A short description of series [1]: Effect of surfactants on sincalide recovery (RP-HPLC). It is filed as physicochemical. As to conditions: for sincalide recoveries: formulations containing trace levels (2.5-7.5 μg/mL) of the surfactant. The text has this:
During the preliminary developmental studies of a new formulation that consisted of bulking agent/tonicity adjuster, buffer, salt, chelator, and sincalide, it was observed by HPLC analysis that the recovery of the active pharmaceutical ingredient, sincalide, in the bulk solution was sensitive to standing open to air. […] Although to some extent, this sincalide decrease can be accounted for by an increase in the presence of sincalide mono- and disulfoxide degradants, these represent only a very minor percentage of the decreases noted. Thus the decrease in recovery is thought to be attributed to either adsorption/denaturing or air/liquid interface effects. To minimize sincalide degradation associated with surface adsorption, surfactants are added as formulation excipients in bulk and lyophilized formulations of sincalide.
Sincalide formulations consisting of a bulking agent/tonicity adjuster (D-mannitol), buffer (mono- and dibasic potassium phosphate), salt (sodium/potassium chloride) for tonicity, chelator (pentetic acid), and active ingredient (sincalide) were prepared using varying concentrations of the nonionic surfactant, polysorbate 80 (TWEEN® 80). Bulk solution and reconstituted lyophilized samples were either stoppered immediately or left unstoppered for 17 hours, and were assayed for sincalide recovery by reversed-phase gradient elution HPLC at 215 nm. […]
An additional experiment was performed to confirm the effect of the concentration of TWEEN® 20 in terms of sincalide recovery in both air exposed and sealed bulk formulation. Sincalide recovery, determined for bulk formulation (75.0 mg/mL D-mannitol, 6.0 mg/mL KCl, 3.25 mg/mL KH2PO4, 1.0 mg/mL DTPA, 0.0025 mg/mL sincalide) containing varying trace levels of TWEEN® 20 stored in open or closed vials using reversed-phase gradient elution HPLC, is shown in Table 10. […]

Series [2] in a line: Metal ion oxidative effects on sincalide with/without DTPA (RP-HPLC). As to conditions: analyzed within 8 hours. The series is classed as physicochemical. On the procedure: Experiments were performed to determine whether these residues, as present in sincalide, were susceptible to oxidation by free metals. These experiments also examined the role of DTPA as a formulation excipient to chelate metals and thereby inhibit sincalide oxidation. FIGS. 2-4 show the three oxidized forms of sincalide containing either mono- or disulfoxides.
The experimental formulation (25 mL) solution with (+) and without (−) DTPA were individually spiked with nine metal ions, as summarized in Table 7.
Copper and manganese, in the absence of DTPA, have the greatest oxidative effect on the methionine residues of sincalide resulting in combined weight percentages of Met 3 and Met 6 monosulfoxides (vs sincalide) of 85.5 and 128.9, respectively. In addition to the presence of sincalide Met 3 and Met 6 monosulfoxides (tR≈14.8 min. {doublet} and tR≈18 min.), formation of sincalide disulfoxide (tR≈6.5 min.) was also noted in the cases of copper and manganese, but not with the other metals.

Another series has as its system gallbladder. To be noted: patients pretreated before hepatobiliary imaging; typical; cited from earlier work.

For the compound “polyoxyethylene sorbitan monolaurate [TWEEN ® 20]”, the “foaming in the reconstituted product upon vigorous stirring” value in series [1] (2-mL filled vials, TWEEN 20 concentration of 5 μg/mL) is “slight foaming”. Further, the sincalide recoveries in series [1] is 98-102%.
Turning to `CSCC[C@H](NC(=O)[C@H](Cc1ccc(OS(=O)(=O)O)cc1)NC(=O)[C@@H](N)CC(=O)O)C(=O)NCC(=O)N[C@@H](Cc1c[nH]c2ccccc12)C(=O)N[C@@H](CCSC)C(=O)N[C@@H](CC(=O)O)C(=O)N[C@@H](Cc1ccccc1)C(N)=O` [Sincalide, 1-De(5-oxo-L-glutamine-5-L-proline)-2-de-L-methioninecaerulein], the “combined percentages of Met 3 and Met 6 monosulfoxides (vs sincalide)” value in series [2] (experimental formulation without DTPA spiked with copper (0.63 mM Cu2+)) came out at 85.5%; in series [2] (experimental formulation without DTPA spiked with manganese (0.18 mM Mn2+)) it was 128.9%. In addition, the “time to gallbladder contraction after sincalide injection” value in the series on gallbladder was not above 15 min.
For the compound polysorbate 80 [TWEEN ® 80], in series [1], the sincalide recoveries is 95-98%.
